Data from US7767789B2, “Truncated proteins as cancer markers” (University Hopitals of Cleveland, priority 2005, dated 2010).

Key:
[1] = system: HeLa cells; experiment: Cell selection: growth with BzATP and immunoblot of P2X7/P2X7-j protein, HeLa; type: cell-based, human; settings: 50 micromolar BzATP, seven days
Procedure: (§1) Growth of various cell lines expressing P2X7 and/or P2X7-j in the presence or absence of BzATP was performed to determine how P2X7 receptors may affect cell selection over time. FIG. 23. HEK-293 cells expressing P2X7, HEK-293 cells expressing P2X7-j, or HeLa cells, which express both P2X7 and P2X7-j were separately grown in culture, in the presence or absence of 50 micromolar BzATP for seven (7) days. At various time points, samples of the cells were taken and examined for expression of P2X7 and/or P2X7-j protein by immunoblotting using a P2X7-specific antibody. This antibody was obtained from Alomone Labs (Jerusalem, Israel) and was reactive with the extracellular domain of P2X7 protein. Amino acids 136-152 of the mouse P2X7 receptor ([…]; (SEQ ID NO:7)) were used as the antigen to prepare the antibody. A labeled secondary antibody was used to visualize reactive protein bands. By layering equal amounts of total protein (15 micrograms) it was possible to compare the relative expression of the P2X7 and/or P2X7-j proteins by the cells.

[2] = molecular target: T1, full-length human P2X7 receptor (HEK-293-hP2X7-R cells) (Homo sapiens, UniProt Q99572); experiment: Cytosolic calcium in HEK-293-hP2X7-R and wild-type HEK293 cells on filters; type: cell-based
T1 construct: For transfections, the full length human P2X7 receptor; expressed in transfected cells; host or cells: HEK-293, pcDNA-6 vector
T1 sequence (Q99572 1-595): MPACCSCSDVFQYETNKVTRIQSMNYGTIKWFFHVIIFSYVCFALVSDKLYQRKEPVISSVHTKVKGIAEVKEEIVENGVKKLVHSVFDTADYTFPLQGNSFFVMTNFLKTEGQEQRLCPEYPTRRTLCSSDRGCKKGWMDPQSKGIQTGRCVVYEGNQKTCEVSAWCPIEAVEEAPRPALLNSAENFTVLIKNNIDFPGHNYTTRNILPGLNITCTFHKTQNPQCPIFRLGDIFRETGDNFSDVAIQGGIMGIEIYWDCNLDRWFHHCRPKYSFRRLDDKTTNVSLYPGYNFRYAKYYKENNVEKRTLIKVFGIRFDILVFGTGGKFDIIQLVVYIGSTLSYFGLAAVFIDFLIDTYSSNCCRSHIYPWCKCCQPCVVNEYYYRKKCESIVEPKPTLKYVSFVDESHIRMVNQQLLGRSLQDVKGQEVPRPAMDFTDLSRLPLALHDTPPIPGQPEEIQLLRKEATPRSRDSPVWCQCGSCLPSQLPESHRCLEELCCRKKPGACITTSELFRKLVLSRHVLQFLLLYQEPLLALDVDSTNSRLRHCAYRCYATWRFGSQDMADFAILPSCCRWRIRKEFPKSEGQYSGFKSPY

[3] = molecular target: T2, P2X7-mediated pore (MDCK cells expressing P2X7 or P2X7-j) (Homo sapiens, UniProt Q99572, R270H/Y155H); experiment: BzATP-stimulated pore activation (ethidium bromide entry), MDCK cells; type: cell-based; settings: doxycycline-treated MDCK-P2X7 cells; BzATP 100 micromolar
T2 construct: expressed in transfected cells; host or cells: MDCK (canine kidney), doxycycline-inducible promoter
T2 sequence (Q99572 whole entry Y155H/R270H): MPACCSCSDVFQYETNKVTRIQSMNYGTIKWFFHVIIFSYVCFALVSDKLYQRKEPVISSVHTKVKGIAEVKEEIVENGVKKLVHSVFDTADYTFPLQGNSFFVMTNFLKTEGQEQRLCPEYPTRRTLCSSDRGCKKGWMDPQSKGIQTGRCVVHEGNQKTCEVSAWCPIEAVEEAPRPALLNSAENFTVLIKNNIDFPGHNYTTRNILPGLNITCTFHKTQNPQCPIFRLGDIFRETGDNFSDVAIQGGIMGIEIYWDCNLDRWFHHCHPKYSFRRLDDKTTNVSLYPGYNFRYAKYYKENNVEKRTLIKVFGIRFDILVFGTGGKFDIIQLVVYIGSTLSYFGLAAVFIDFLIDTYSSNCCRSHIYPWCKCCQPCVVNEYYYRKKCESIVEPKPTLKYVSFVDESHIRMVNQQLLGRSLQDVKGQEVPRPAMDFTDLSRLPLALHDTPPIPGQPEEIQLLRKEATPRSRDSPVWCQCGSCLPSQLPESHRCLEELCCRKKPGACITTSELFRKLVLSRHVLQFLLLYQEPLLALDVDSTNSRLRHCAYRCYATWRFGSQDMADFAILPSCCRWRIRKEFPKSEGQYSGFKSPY
Procedure: (§2) BzATP-stimulated pore activation of P2X7 and P2X7-j receptor proteins was also determined. FIG. 13. MDCK cells or HEK-293 cells expressing either P2X7 or P2X7-j were treated with BzATP in the presence of ethidium bromide. Fluorescence of ethidium bromide was measured after BzATP activation (100 micromolar) as a measure of ethidium bromide entry into the cells via the P2X7-mediated pore. Results in seven Panels (A-G) each composed of 30 exposures of cells placed on a glass slide. The direction of the pictures in each Panel is left to right, and then up-down. […] FIG. 13, Panel B and Panel F, respectively.
(§3) A quantification of the changes in ethidium bromide signaling from experiments similar to those in FIG. 13 was then calculated. FIG. 14.

[4] = molecular target: T3, P2X7-mediated pore (MDCK cells expressing P2X7 or P2X7-j) (Homo sapiens, UniProt Q99572, Y155H); experiment: as above; type: cell-based; settings: doxycycline-treated MDCK-P2X7-j cells compared to MDCK-P2X7 cells
T3 construct: expressed in transfected cells; host or cells: MDCK (canine kidney), doxycycline-inducible promoter
T3 sequence (Q99572 1-258 isoform Q99572-9 Y155H): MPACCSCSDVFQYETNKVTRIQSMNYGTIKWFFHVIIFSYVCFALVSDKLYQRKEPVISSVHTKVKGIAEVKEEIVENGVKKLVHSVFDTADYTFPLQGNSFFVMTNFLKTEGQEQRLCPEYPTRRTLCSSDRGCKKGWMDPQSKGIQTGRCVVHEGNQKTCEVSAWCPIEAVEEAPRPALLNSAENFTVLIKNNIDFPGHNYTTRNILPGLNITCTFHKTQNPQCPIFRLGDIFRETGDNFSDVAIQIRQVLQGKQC
Procedure: as §2, §3

[5] = system: β-arrestin-2-GFP in CaSki cells; experiment: Real-time confocal microscopy of β-arrestin-2-GFP, CaSki cells; type: cell-based, human; settings: CaSki transfected with β-arrestin-2-GFP; not shown
Procedure: CaSki cells transfected with the β-arrestin-2-GFP, or HEK-293 cells co-transfected with the full-length human P2X7-receptor and the β-arrestin-2-GFP were plated on 35-mm glass-bottom culture dishes (MatTek Corporation, Ashland, MA). Dishes contained a centered, 1 cm well formed from a glass coverslip sealed hole in the plastic. Two hours before experiments the medium was replaced with serum-free medium supplemented with 10 mM HEPES. The distribution of the β-arrestin-2-GFP was visualized before and after treatment with the agonist by real-time confocal microscopy. Imaging of the β-arrestin-2-GFP fluorescence in the same cells was performed on a Zeiss laser-scanning confocal microscope (LSM-510) using a heated (37° C.) microscope stage. Barak et al., “A beta-arrestin/green fluorescent protein biosensor for detecting G protein-coupled receptor activation” J Biol Chem 272:27497-27500 (1997).
Images were collected sequentially before and after treatment with agonist for 0-30 min at 37° C. using single line excitation (488 nm).

[6] = molecular target: T4, P2X7 channel (MDCK cells expressing P2X7 or P2X7-j) (Homo sapiens, UniProt Q99572, R270H/Y155H); experiment: BzATP-stimulated channel activation (Fluo-4 calcium), MDCK cells; type: cell-based; settings: MDCK-P2X7 cells; 100 micromolar BzATP
T4 construct: expressed in transfected cells; host or cells: MDCK (canine kidney), doxycycline-inducible promoter
T4 sequence (Q99572 whole entry Y155H/R270H): as the sequence (Q99572 whole entry Y155H/R270H) above
Procedure: (§4) 2′-3′-O-(4-benzoyl-benzoyl)adenosine 5′-triphosphate (BzATP) stimulated channel activation of P2X7 and P2X7-j was determined. FIG. 11. As discussed earlier, activation of P2X7 receptors provides influx of selected cations through the ATP-activated channel provided by the P2X7 protein. MDCK or HEK-293 cells expressing either P2X7 or P2X7-j were loaded with the calcium-sensitive dye Fluo-4 and treated with 100 micromolar of BzATP. Calcium entry into the cells via the P2X7 channel after BzATP activation was measured in terms of changes in Fluo-4 fluorescence.
(§5) A quantification of the changes in cytosolic calcium after BzATP exposure provided data that was similar to that presented in FIG. 11. FIG. 12.

[7] = molecular target: T5, P2X7 channel (MDCK cells expressing P2X7 or P2X7-j) (Homo sapiens, UniProt Q99572, Y155H); experiment: as above; type: cell-based; settings: MDCK-P2X7-j cells compared to MDCK-P2X7 cells
T5 construct: expressed in transfected cells; host or cells: MDCK (canine kidney), doxycycline-inducible promoter
T5 sequence (Q99572 1-258 isoform Q99572-9 Y155H): as the sequence (Q99572 1-258 isoform Q99572-9 Y155H) above
Procedure: as §4, §5

[8] = system: HEK-293 cells expressing P2X7 or P2X7-j; experiment: Cell selection: growth with BzATP and immunoblot of P2X7/P2X7-j protein, HEK-293; type: cell-based, human
Procedure: as §1

[9] = molecular target: T1, full-length human P2X7 receptor (HEK-293-hP2X7-R cells); experiment: Ethidium bromide influx in HEK-293-hP2X7-R and wild-type HEK293 cells on filters; type: cell-based

Substance: 2′-3′-O-(4-benzoylbenzoyl)adenosine 5′-triphosphate [BzATP]
- expression of P2X7 protein [1]: significantly decreased
- expression of the P2X7-j protein [1]: remained stable
- sustained cytosolic calcium increase [2]: induced sustained Ci increase
- ethidium bromide signaling (pore) [3]: increased ethidium bromide signaling
- ethidium bromide signaling response to BzATP [4]: significantly smaller
- re-distribution of GFP fluorescence towards cell periphery [5]: A similar effect was observed
- Fluo-4 signal (cytosolic calcium) [6]: increased acutely the Fluo-4 signal
- calcium response to BzATP [7]: significantly smaller
- expression of the P2X7-j protein ([8]; HEK-293 cells expressing P2X7-j, continuous 50 micromolar BzATP): did not decrease the expression of the P2X7-j protein
- expression of the P2X7 protein ([8]; HEK-293 cells expressing P2X7, 50 micromolar BzATP, each day up to 7 days): less than in cells not treated with BzATP
- influx of ethidium bromide [9]: influx of ethidium bromide
